Measurements: the NIST ThermoML archive (doi:10.1021/je900387e)

Experiment: xn = mol fraction of the nth substance listed
Conditions: Liquid, Pycnometric method

CCCCBr [1-bromobutane] + O=C=O
Conditions	mass density [kg/m3]
308.2 K, 6320 kPa, x1 = 0.1495	1011
308.2 K, 6620 kPa, x1 = 0.0989	890
308.2 K, 6840 kPa, x1 = 0.0989	897
308.2 K, 6850 kPa, x1 = 0.0683	834
308.2 K, 6930 kPa, x1 = 0.0683	836
308.2 K, 6980 kPa, x1 = 0.0683	838
308.2 K, 7040 kPa, x1 = 0.0989	903
308.2 K, 7050 kPa, x1 = 0.0683	842
308.2 K, 7090 kPa, x1 = 0.0461	805
308.2 K, 7090 kPa, x1 = 0.0683	845
308.2 K, 7160 kPa, x1 = 0.0683	848
308.2 K, 7230 kPa, x1 = 0.0461	811
308.2 K, 7240 kPa, x1 = 0.0683	850
308.2 K, 7350 kPa, x1 = 0.0683	854
308.2 K, 7350 kPa, x1 = 0.0989	910
308.2 K, 7380 kPa, x1 = 0.0245	712
308.2 K, 7390 kPa, x1 = 0.0461	817
308.2 K, 7400 kPa, x1 = 0.0245	711
308.2 K, 7400 kPa, x1 = 0.1495	1018
308.2 K, 7420 kPa, x1 = 0.0245	713
308.2 K, 7440 kPa, x1 = 0.0245	716
308.2 K, 7450 kPa, x1 = 0.0683	858
308.2 K, 7480 kPa, x1 = 0.0245	720
308.2 K, 7520 kPa, x1 = 0.0245	724
308.2 K, 7540 kPa, x1 = 0.0683	861
308.2 K, 7550 kPa, x1 = 0.0461	823
308.2 K, 7590 kPa, x1 = 0.0245	729
308.2 K, 7640 kPa, x1 = 0.0245	734
308.2 K, 7660 kPa, x1 = 0.0461	827
308.2 K, 7660 kPa, x1 = 0.0683	864
308.2 K, 7700 kPa, x1 = 0.0245	738
308.2 K, 7700 kPa, x1 = 0.0989	916
308.2 K, 7750 kPa, x1 = 0.0461	830
308.2 K, 7770 kPa, x1 = 0.0245	743
308.2 K, 7780 kPa, x1 = 0.0683	867
308.2 K, 7830 kPa, x1 = 0.0245	747
308.2 K, 7850 kPa, x1 = 0.0461	833
308.2 K, 7920 kPa, x1 = 0.0245	752
308.2 K, 7950 kPa, x1 = 0.0461	836
308.2 K, 8010 kPa, x1 = 0.0245	757
308.2 K, 8060 kPa, x1 = 0.0461	839
308.2 K, 8090 kPa, x1 = 0.0245	762
308.2 K, 8120 kPa, x1 = 0.0989	924
308.2 K, 8190 kPa, x1 = 0.0461	843
308.2 K, 8190 kPa, x1 = 0.1495	1026
308.2 K, 8200 kPa, x1 = 0.0245	767
308.2 K, 8300 kPa, x1 = 0.0245	772
308.2 K, 8420 kPa, x1 = 0.0245	777
308.2 K, 8610 kPa, x1 = 0.0989	930
308.2 K, 8620 kPa, x1 = 0.0245	785
308.2 K, 8840 kPa, x1 = 0.0245	793
308.2 K, 9040 kPa, x1 = 0.1495	1033
308.2 K, 9100 kPa, x1 = 0.0245	801
308.2 K, 9190 kPa, x1 = 0.0989	938
308.2 K, 9370 kPa, x1 = 0.0245	809
308.2 K, 9680 kPa, x1 = 0.0245	818
308.2 K, 9820 kPa, x1 = 0.0989	944
308.2 K, 9960 kPa, x1 = 0.1495	1041
308.2 K, 10040 kPa, x1 = 0.0245	827
308.2 K, 10130 kPa, x1 = 0.0989	948
308.2 K, 10420 kPa, x1 = 0.0245	835
308.2 K, 10860 kPa, x1 = 0.0245	844
308.2 K, 10920 kPa, x1 = 0.1495	1048
308.2 K, 11350 kPa, x1 = 0.0245	853
308.2 K, 11370 kPa, x1 = 0.1495	1051
308.2 K, 11880 kPa, x1 = 0.0245	863
308.2 K, 11910 kPa, x1 = 0.1495	1055
308.2 K, 12480 kPa, x1 = 0.0245	873
308.2 K, 12510 kPa, x1 = 0.1495	1060
308.2 K, 13080 kPa, x1 = 0.1495	1063
308.2 K, 13130 kPa, x1 = 0.0245	882
308.2 K, 13590 kPa, x1 = 0.0245	889
308.2 K, 13640 kPa, x1 = 0.1495	1067
308.2 K, 14140 kPa, x1 = 0.0245	896
308.2 K, 14210 kPa, x1 = 0.1495	1071
308.2 K, 14290 kPa, x1 = 0.0245	899
308.2 K, 14850 kPa, x1 = 0.1495	1075
308.2 K, 15150 kPa, x1 = 0.1495	1077
313.1 K, 6900 kPa, x1 = 0.1495	986
313.1 K, 7230 kPa, x1 = 0.0989	875
313.1 K, 7250 kPa, x1 = 0.1495	991
313.1 K, 7480 kPa, x1 = 0.0683	811
313.1 K, 7510 kPa, x1 = 0.1495	994
313.1 K, 7520 kPa, x1 = 0.0989	881
313.1 K, 7590 kPa, x1 = 0.0683	814
313.1 K, 7670 kPa, x1 = 0.0683	817
313.1 K, 7680 kPa, x1 = 0.0461	756
313.1 K, 7730 kPa, x1 = 0.0461	758
313.1 K, 7760 kPa, x1 = 0.0683	820
313.1 K, 7770 kPa, x1 = 0.1495	997
313.1 K, 7820 kPa, x1 = 0.0461	764
313.1 K, 7830 kPa, x1 = 0.0989	882
313.1 K, 7860 kPa, x1 = 0.0683	823
313.1 K, 7910 kPa, x1 = 0.0461	769
313.1 K, 7950 kPa, x1 = 0.0683	826
313.1 K, 7990 kPa, x1 = 0.0245	619
313.1 K, 8000 kPa, x1 = 0.0245	621
313.1 K, 8010 kPa, x1 = 0.0461	775
313.1 K, 8030 kPa, x1 = 0.0245	628
313.1 K, 8060 kPa, x1 = 0.0683	829
313.1 K, 8070 kPa, x1 = 0.0245	635
313.1 K, 8090 kPa, x1 = 0.1495	1001
313.1 K, 8100 kPa, x1 = 0.0245	641
313.1 K, 8100 kPa, x1 = 0.0461	780
313.1 K, 8140 kPa, x1 = 0.0245	649
313.1 K, 8170 kPa, x1 = 0.0683	832
313.1 K, 8170 kPa, x1 = 0.0989	893
313.1 K, 8190 kPa, x1 = 0.0245	656
313.1 K, 8240 kPa, x1 = 0.0245	663
313.1 K, 8240 kPa, x1 = 0.0461	786
313.1 K, 8290 kPa, x1 = 0.0683	835
313.1 K, 8300 kPa, x1 = 0.0245	671
313.1 K, 8360 kPa, x1 = 0.0245	679
313.1 K, 8360 kPa, x1 = 0.0461	791
313.1 K, 8390 kPa, x1 = 0.0683	838
313.1 K, 8430 kPa, x1 = 0.0245	687
313.1 K, 8460 kPa, x1 = 0.1495	1004
313.1 K, 8500 kPa, x1 = 0.0461	797
313.1 K, 8530 kPa, x1 = 0.0245	695
313.1 K, 8540 kPa, x1 = 0.0683	842
313.1 K, 8560 kPa, x1 = 0.0989	900
313.1 K, 8620 kPa, x1 = 0.0245	703
313.1 K, 8650 kPa, x1 = 0.0461	802
313.1 K, 8660 kPa, x1 = 0.0683	845
313.1 K, 8740 kPa, x1 = 0.0245	712
313.1 K, 8790 kPa, x1 = 0.0683	848
313.1 K, 8790 kPa, x1 = 0.1495	1008
313.1 K, 8840 kPa, x1 = 0.0461	808
313.1 K, 8860 kPa, x1 = 0.0245	720
313.1 K, 8930 kPa, x1 = 0.0683	851
313.1 K, 9010 kPa, x1 = 0.0245	729
313.1 K, 9030 kPa, x1 = 0.0989	907
313.1 K, 9040 kPa, x1 = 0.0461	814
313.1 K, 9110 kPa, x1 = 0.0683	854
313.1 K, 9180 kPa, x1 = 0.0245	738
313.1 K, 9240 kPa, x1 = 0.0461	820
313.1 K, 9260 kPa, x1 = 0.0683	858
313.1 K, 9380 kPa, x1 = 0.0245	748
313.1 K, 9440 kPa, x1 = 0.0683	861
313.1 K, 9470 kPa, x1 = 0.0461	826
313.1 K, 9480 kPa, x1 = 0.0989	913
313.1 K, 9540 kPa, x1 = 0.1495	1015
313.1 K, 9580 kPa, x1 = 0.0683	864
313.1 K, 9600 kPa, x1 = 0.0245	758
313.1 K, 9710 kPa, x1 = 0.0461	833
313.1 K, 9790 kPa, x1 = 0.0683	868
313.1 K, 9850 kPa, x1 = 0.0245	767
313.1 K, 9950 kPa, x1 = 0.1495	1018
313.1 K, 9990 kPa, x1 = 0.0461	840
313.1 K, 10020 kPa, x1 = 0.0989	920
313.1 K, 10150 kPa, x1 = 0.0245	778
313.1 K, 10330 kPa, x1 = 0.1495	1022
313.1 K, 10450 kPa, x1 = 0.0245	788
313.1 K, 10600 kPa, x1 = 0.0989	927
313.1 K, 10770 kPa, x1 = 0.1495	1026
313.1 K, 10840 kPa, x1 = 0.0245	799
313.1 K, 11180 kPa, x1 = 0.0989	933
313.1 K, 11240 kPa, x1 = 0.1495	1030
313.1 K, 11280 kPa, x1 = 0.0245	810
313.1 K, 11690 kPa, x1 = 0.1495	1033
313.1 K, 11760 kPa, x1 = 0.0245	821
313.1 K, 11850 kPa, x1 = 0.0989	941
313.1 K, 12120 kPa, x1 = 0.1495	1036
313.1 K, 12160 kPa, x1 = 0.0989	944
313.1 K, 12320 kPa, x1 = 0.0245	833
313.1 K, 12560 kPa, x1 = 0.0989	948
313.1 K, 12600 kPa, x1 = 0.1495	1040
313.1 K, 12960 kPa, x1 = 0.0245	845
313.1 K, 13090 kPa, x1 = 0.1495	1044
313.1 K, 13640 kPa, x1 = 0.1495	1047
313.1 K, 13700 kPa, x1 = 0.0245	857
313.1 K, 14170 kPa, x1 = 0.1495	1051
313.1 K, 14530 kPa, x1 = 0.0245	870
313.1 K, 14740 kPa, x1 = 0.1495	1056
313.1 K, 14980 kPa, x1 = 0.0245	876
313.1 K, 15070 kPa, x1 = 0.1495	1058
313.1 K, 15150 kPa, x1 = 0.0245	879
313.1 K, 15320 kPa, x1 = 0.1495	1060
316.1 K, 8270 kPa, x1 = 0.0245	528
316.1 K, 8280 kPa, x1 = 0.0245	532
316.1 K, 8300 kPa, x1 = 0.0245	537
316.1 K, 8320 kPa, x1 = 0.0245	543
316.1 K, 8340 kPa, x1 = 0.0245	549
316.1 K, 8360 kPa, x1 = 0.0245	556
316.1 K, 8380 kPa, x1 = 0.0245	562
316.1 K, 8410 kPa, x1 = 0.0245	572
316.1 K, 8460 kPa, x1 = 0.0245	582
